Assay results as given in patent US20250263437A1, “POLYPEPTIDE FOR REPAIRING SKIN WOUND OR MUCOSAL INJURY, AND APPLICATION THEREOF” (Sichuan Gooddoctor Panxi Pharmaceutical Co., Ltd., priority 2021, published 2025).
Entries after “also recorded” stand apart in the source; their conditions may differ. Where no end group is shown, it is not given here.

Assays:
[1] = test system: acute mechanical skin injury in rats; assay: Healing effect on acute mechanical skin injury in rats; type: in vivo; conditions: for promoting wound healing (in words): 40 μg/cm^2; for wound healing rate, 5 days / wound healing rate, 10 days / wound healing rate, 14 days: polypeptide 40 μg/cm^2, Jinyintai 40 IU/cm^2, topical once daily, in % (unit assumed)
Method: SPF grade SD rats, weighing 180-230 g, were raised in respective clean sterilized cages, with water, feed and padding replacement given regularly every day. The feeding temperature was kept at 22° C. and the humidity was 55-65%. They were raised for one week for acclimatization. According to a random grouping method, the animals were divided into a model control group (normal saline), a Jinyintai control group (40 IU/cm^2, Shenzhen Watsin Genetech Ltd.) and a test polypeptide treatment group (40 μg/cm^2), with 6 animals in each group. After the rats were successfully anesthetized by intraperitoneal injection of 3% pentobarbital sodium, the hair within 1 cm around the edge of the wound was cut off, and the wound area was disinfected first with iodophor and then with 75% alcohol locally. A round full-thickness skin wound of 1.5 cm×1.5 cm (i.e., 1.5 cm in diameter) was made near the neck at 4 cm down to the back from the middle of the connecting line of the ears, with the spine as the midline. It went deep into the muscle layer, forming an animal model of acute mechanical injury. After modeling, the rats were raised in individual cages with the wounds exposed. During dressing replacement, the rats were all first debrided with iodophor, and then, the wound was washed with sterile normal saline and wiped dry. Except the model group, the wounds of the rats in the other groups were locally coated with 40 μL of the corresponding drug solution once daily. On days 0, 5, 10 and 14 of administration, the wound images of the rats in each group were taken, and the wound area was calculated by means of an image analysis software (Image J). According to the formula, the wound healing rate was obtained.

[2] = test system: HMEC-1 cells; assay: Proliferation of HMEC-1 cells (CCK-8); type: cell-based, Human; conditions: 0.05, 0.2 and 0.8 ug/mL; 48 h; 0% serum
Method: Human microvascular endothelial cells (HMEC-1 cells) were cultured in 10% serum culture medium at 37° C. and 5% CO2, the medium was replaced every 1-2 d, and the cell concentration was controlled to be 4×10^6 cells/mL for passage. Cells were collected, prepared to […] with complete culture medium, inoculated into a 96-well cell culture plate, with 100 μL per well, i.e., 5000 cells/well, and cultured at 37° C. and 5% CO2 until the cells adhered to the wall. The polypeptide compound of the present invention was prepared to test concentrations (0.05 ug/mL, 0.2 ug/mL, and 0.8 ug/mL) with 0% serum culture medium as experimental groups, a positive drug (300 ng/ml) was prepared in the same way and added as a positive control, and an equal amount of 0% serum drug-free culture medium was added to the control group. They were added to 5 duplicate wells, and the resultants were incubated at 37° C. and 5% CO2 for 48 h. Detection of the proliferation of cells using CCK-8: the old culture medium was removed, and a serum-free medium containing 10% CCK-8 was added to each well. After incubation in an incubator for 2 h, the absorbance at 450 nm was measured by a microplate reader.

[3] = test system: chronic atrophic gastritis model in mice; assay: Therapeutic effect on chronic atrophic gastritis model in mice (MNNG combined with ranitidine); type: in vivo; conditions: 5 mg/kg daily by gavage, 2 weeks
Method: Method: Chronic atrophic gastritis was induced by MNNG (N-methyl-N-nitro-N-nitrosoguanidine) combined with ranitidine. The mice were free to access to an aqueous solution containing MNNG ([…]), and at the same time, the mice were given ranitidine (8 mg/ml) aqueous solution at a dose of 150 mg/kg by gavage at a fixed time per day for 20 consecutive weeks. After 20 weeks of modeling, on the basis of drinking ordinary distilled water, the mice were given Compound 1 (5 mg/kg) daily by gavage.

AAVLDKLE [Compound 68]
promoting wound healing (in words) [1]: trend of promoting wound healing | wound healing rate, 5 days [1]: 29.26 ± 6.46 | wound healing rate, 10 days [1]: 60.97 ± 2.87 | wound healing rate, 14 days [1]: 88.42 ± 4.79

SMQASLEAEAKGKAE [Compound 1]
effect on proliferation of HMEC-1 cells [2]: significant proliferation promoting effects; also recorded: proliferation-promoting effect | promoting wound healing (in words) [1]: trend of promoting wound healing | wound healing rate, 5 days [1]: 31.68 ± 3.48 | wound healing rate, 10 days [1]: 63.20 ± 3.87 | wound healing rate, 14 days [1]: 91.43 ± 2.87 | repair / therapeutic effect on chronic atrophic gastritis [3]: could promote the repair of chronic atrophic gastritis in mice; also recorded: therapeutic effect | height of the mucosa in the gastric antrum ([3]; compared with the model group): substantially recovered to the normal state | number of parietal cells ([3]; compared with the model group): increased significantly | structure of the gastric gland ([3]; compared with the model group): recovered to normal

VDAAVLEKLE [Compound 67]
promoting wound healing (in words) [1]: trend of promoting wound healing | wound healing rate, 5 days [1]: 30.40 ± 3.35 | wound healing rate, 10 days [1]: 61.42 ± 5.73 | wound healing rate, 14 days [1]: 90.87 ± 3.94
